Holding throughout (type): cell-based
For test [1], the system named is SNU-16 (human gastric cancer). In words: cells. The settings on record: for SI SNU-16: selectivity coefficient vs normal BALB/3T3 fibroblasts.
Test [2] concerns BALB/3T3 (normal mouse fibroblasts). Description: In vitro cytotoxicity, SRB assay, normal BALB/3T3 fibroblasts. (In general: Sulforhodamine B stains cellular protein and so reports cell mass.)
Test [3] concerns NCI-H23 (human lung cancer). In words: In vitro cytotoxicity, SRB assay, NCI-H23. The settings on record: 72 h with compound, SRB, n/a = non-active compound, read-out: NCI-H23 IC50.
Test [4] has as its system PLC/PRF/5 (human liver cancer). Description: cells. The settings on record: for SI PLC/PRF/5: selectivity coefficient vs normal BALB/3T3 fibroblasts.
Test [5] concerns A2780 (human ovarian cancer). In words: In vitro cytotoxicity, SRB assay, A2780. The following applies: 72 h with compound, SRB, n/a = non-active compound, read-out: A2780 IC50.
The subject of test [6] is A2780Cis (cisplatin-resistant human ovarian cancer). Description: In vitro cytotoxicity, SRB assay, A2780Cis.
Test [7] deals with MV-4-11 (human biphenotypic leukaemia). In words: In vitro cytotoxicity, MTT assay, MV-4-11. (Tetrazolium dyes change colour on reduction, which living cells bring about.)
Test [8] concerns Hs294T (human melanoma). In words: cells. The following applies: for SI Hs294T: selectivity coefficient vs normal BALB/3T3 fibroblasts.
The subject of test [9] is MIA PaCa-2 (human pancreatic cancer). Description: cells. The settings on record: for SI MIA PaCa-2: selectivity coefficient vs normal BALB/3T3 fibroblasts.
The test system of test [10] is NCI-H358 (human lung cancer). In words: cells. The following applies: Table 4; for IC50: NCI-H358 human lung cancer cells, read-out: IC50 (nM) NCI-H358; for SI NCI-H358: selectivity coefficient vs normal BALB/3T3 fibroblasts.
Test [11] relates to PFSK-1 (malignant primitive neuroectodermal tumour). In words: In vitro cytotoxicity, SRB assay, PFSK-1. The settings on record: 72 h with compound, SRB, n/a = non-active compound, read-out: PFSK-1 IC50.
Test [12] deals with A375 (human melanoma). Description: In vitro cytotoxicity, SRB assay, A375. The settings on record: 72 h with compound, SRB, n/a = non-active compound, read-out: A375 IC50.
Test [13] concerns KG-1 (human acute myeloid leukaemia). Description: In vitro cytotoxicity, MTT assay, KG-1. The following applies: Homo sapiens; 72 h with compound, MTT; n/a = non-active compound.
The subject of test [14] is cancer cells. Description: In vitro cytotoxic activity on the panel of cancer cell lines (MTT/SRB), general statements. The settings on record: Tables 3.1, 3.2, 4 and 5; parent compound salinomycin.
Setting [15] is: Table 4, SNU-16 human gastric cancer cells, read-out: IC50 (nM) SNU-16.
Where [16] appears, read: Table 4, BALB/3T3 normal mouse fibroblasts, read-out: IC50 (nM) BALB3T3 normal cells.
[17] abbreviates: Table 5, BALB/3T3 normal mouse fibroblasts, read-out: IC50 (nM) BALB3T3 normal cells.
The mark [18] stands for this setting: Table 4, PLC/PRF/5 human liver cancer cells, read-out: IC50 (nM) PLC/PRF/5.
Where [19] appears, read: Table 4, MIA PaCa-2 human pancreatic cancer cells, read-out: IC50 (nM) MIA PaCa-2.
Where [20] appears, read: Hs 294T, Table 4, Hs294T human melanoma cells, read-out: IC50 (nM) Hs294T.
Where [21] appears, read: Homo sapiens, A2780cis, read-out: IC50 (nM) A2780Cis.
Setting [22] is: Homo sapiens, MV4-11, read-out: IC50 (nM) MV4-11.

Structures are written as SMILES. Values joined by “and” are separate entries in the source; they are usually repeats but may differ in a detail not shown here. Identical values can stand only once. Like-named read-outs stand apart in the source and are kept apart here.

Take `N.N.[Cl][Pt][Cl]` [Cisplatin, cisplatin, reference compound]: the IC50 turned out to be 2330 nM in test [1] (72 h with compound, MTT, n/a = non-active compound, read-out: SNU-16 IC50); 2330 nM in test [1] (setting [15]); 1390 nM in [2] (setting [16]); 1390 nM in test [2] (setting [17]); 1390 nM in test [2] (normal cells, 72 h with compound, SRB, n/a = non-active compound, read-out: BALB/3T3 IC50); 2320 nM in test [3]. In addition, the IC50 is 1580 nM in test [4] (72 h with compound, SRB, n/a = non-active compound, read-out: PLC/PRF/5 IC50); 1580 nM in test [4] (setting [18]); 178 nM in test [5]; 2610 nM in [6] (read-out: A2780Cis IC50); 2610 nM and 2870 nM in test [6] (read-out: IC50 (nM) A2780Cis); 166 nM in test [7] (read-out: IC50 (nM) MV4-11). Moreover, the IC50 in test [8] (72 h with compound, SRB, n/a = non-active compound, read-out: Hs294T IC50) stood at 736 nM; in test [8] (Table 4, Hs294T human melanoma cells, read-out: IC50 (nM) Hs294T), 736 nM; in test [9] (72 h with compound, SRB, n/a = non-active compound, read-out: MIA PaCa-2 IC50), 2360 nM; in test [9] (setting [19]) it was 2360 nM; in test [10], 2550 nM; in test [11], 1510 nM. Besides, in test [12], the IC50 amounted to 410 nM. Besides, the “A2780Cis RI” value in test [6] was 14.6.
`CC[C@@H](C(=O)[C@@H](C)[C@@H](O)[C@H](C)[C@@H]1O[C@@H]([C@@H](CC)C(=O)O)CC[C@@H]1C)[C@H]1O[C@]2(C=C[C@@H](O)[C@]3(CC[C@@](C)([C@H]4CC[C@](O)(CC)[C@H](C)O4)O3)O2)[C@H](C)C[C@@H]1C` [FLC-00001 (SAL), Salinomycin]: the IC50 was found to be 145 nM in test [1] (Homo sapiens, SNU-16, 72 h with compound, MTT, n/a = non-active compound, read-out: SNU-16 IC50); 145 nM in [1] (setting [15]); 429 nM in [13]; 356 nM in [3] (Homo sapiens, NCI-H23); 504 nM in test [4] (Homo sapiens, PLC-PRF-5, 72 h with compound, SRB, n/a = non-active compound, read-out: PLC/PRF/5 IC50); 504 nM in test [4] (setting [18]). Also, the IC50 stood at 120 nM in test [5] (Homo sapiens, A2780); 2160 nM in test [8] (Homo sapiens, Hs 294T, 72 h with compound, SRB, n/a = non-active compound, read-out: Hs294T IC50); 2160 nM in [8] (setting [20]); 304 nM in [9] (Homo sapiens, MIA PaCa-2, 72 h with compound, SRB, n/a = non-active compound, read-out: MIA PaCa-2 IC50); 304 nM in test [9] (setting [19]); 600 nM in test [10]. Also, the IC50 in [11] (Homo sapiens, PFSK-1) worked out at 336 nM; in [12] (Homo sapiens, A-375) it was 574 nM.
As for `CC[C@@H](C(=O)[C@@H](C)[C@@H](O)[C@H](C)[C@@H]1O[C@@H]([C@@H](CC)C(=O)O)CC[C@@H]1C)[C@H]1O[C@]2(C=C[C@@H](NC(=O)OCCOc3ccccc3)[C@]3(CC[C@@](C)([C@H]4CC[C@](O)(CC)[C@H](C)O4)O3)O2)[C@H](C)C[C@@H]1C` [FLC-00460-1•Na], the IC50 came to 130 nM in test [1] (setting [15]); 92.8 nM in test [2] (setting [16]); 17.6 nM in test [4] (setting [18]); 0.98 nM in test [6] (setting [21]); 1.86 nM in [7] (setting [22]); 309 nM in [8] (setting [20]). Moreover, the IC50 amounted to 13.6 nM in test [9] (setting [19]) and 282 nM in test [10]. The “SI SNU-16” value in [1] (Table 4) came out at 0.7. The “SI PLC/PRF/5” value in test [4] (Table 4) was determined as 5.3. Moreover, in test [6], the “SI A2780Cis” value is listed as 94.4. Moreover, the “SI MV4-11” value in test [7] is 50.0. In [8] (Table 4), the “SI Hs294T” value stood at 0.3. Besides, the “SI MIA PaCa-2” value in test [9] (Table 4) is 6.8. Besides, the “SI NCI-H358” value in test [10] was 0.33.
As for `CC[C@@H](C(=O)[C@@H](C)[C@@H](O)[C@H](C)[C@@H]1O[C@@H]([C@@H](CC)C(=O)O)CC[C@@H]1C)[C@H]1O[C@]2(C=C[C@@H](NC(=O)c3ccccc3Cl)[C@]3(CC[C@@](C)([C@H]4CC[C@](O)(CC)[C@H](C)O4)O3)O2)[C@H](C)C[C@@H]1C` [FLC-00462-1•Na], the IC50 in [1] (setting [15]) came to 339 nM; in test [2] (setting [16]), 552 nM; in [4] (setting [18]), 63.8 nM; in [6] (setting [21]) it was 22.5 nM; in [7] (setting [22]) it was 13.7 nM; in test [8] (setting [20]), 1810 nM. Besides, the IC50 in [9] (setting [19]) is 52 nM; in test [10] it was 397 nM. The “SI SNU-16” value in test [1] (Table 4) is on record as 1.6. Also, in [4] (Table 4), the “SI PLC/PRF/5” value is reported as 8.6. For the same compound, in [6], the “SI A2780Cis” value came out at 24.5. Besides, the “SI MV4-11” value in test [7] was 40.4. Further, the “SI Hs294T” value in test [8] (Table 4) was 0.3. In addition, the “SI MIA PaCa-2” value in test [9] (Table 4) was 10.6. Moreover, the “SI NCI-H358” value in [10] worked out at 1.39.
Regarding `CC[C@@H](C(=O)[C@@H](C)[C@@H](O)[C@H](C)[C@@H]1O[C@@H]([C@@H](CC)C(=O)O)CC[C@@H]1C)[C@H]1O[C@]2(C=C[C@@H](NC(=O)C3CCC3)[C@]3(CC[C@@](C)([C@H]4CC[C@](O)(CC)[C@H](C)O4)O3)O2)[C@H](C)C[C@@H]1C` [FLC-00463-1•Na], the IC50 turned out to be 191 nM in [2] (setting [17]), 0.72 nM in test [6] (setting [21]) and 1.98 nM in test [7] (setting [22]). Also, the “SI A2780Cis” value in test [6] is 266.3. In [7], the “SI MV4-11” value amounted to 96.5. Besides, in test [14], the “anti-proliferative effect compared to that of the parent compound” value is on record as “several times more potent compared to that of the parent compound”.
On to `CC[C@@H](C(=O)[C@@H](C)[C@@H](O)[C@H](C)[C@@H]1O[C@@H]([C@@H](CC)C(=O)O)CC[C@@H]1C)[C@H]1O[C@]2(C=C[C@@H](NC(=O)C3CCCCC3)[C@]3(CC[C@@](C)([C@H]4CC[C@](O)(CC)[C@H](C)O4)O3)O2)[C@H](C)C[C@@H]1C` [FLC-00464-1•Na], for which the “anti-proliferative effect compared to that of the parent compound” value in [14] is “several times more potent compared to that of the parent compound”.
With `CC[C@@H](C(=O)[C@@H](C)[C@@H](O)[C@H](C)[C@@H]1O[C@@H]([C@@H](CC)C(=O)O)CC[C@@H]1C)[C@H]1O[C@]2(C=C[C@@H](NC(=S)NC(C)(C)C)[C@]3(CC[C@@](C)([C@H]4CC[C@](O)(CC)[C@H](C)O4)O3)O2)[C@H](C)C[C@@H]1C` [FLC-00467-1•Na], the IC50 in [2] (setting [17]) was 85.4 nM. Besides, the “SI A2780Cis” value in [6] is listed as “≈853700”. Besides, the “SI MV4-11” value in test [7] was “≈853700”. Besides, the “anti-proliferative effect compared to that of the parent compound” value in test [14] is reported as “several times more potent compared to that of the parent compound”.
Turning to `CC[C@@H](C(=O)[C@@H](C)[C@@H](O)[C@H](C)[C@@H]1O[C@@H]([C@@H](CC)C(=O)O)CC[C@@H]1C)[C@H]1O[C@]2(C=C[C@@H](NC(=O)c3ccc(F)cc3)[C@]3(CC[C@@](C)([C@H]4CC[C@](O)(CC)[C@H](C)O4)O3)O2)[C@H](C)C[C@@H]1C` [FLC-00470-1•Na], the “anti-proliferative effect compared to that of the parent compound” value in test [14] is “several times more potent compared to that of the parent compound”.
Same read-out and setting: under `CC[C@@H](C(=O)[C@@H](C)[C@@H](O)[C@H](C)[C@@H]1O[C@@H]([C@@H](CC)C(=O)O)CC[C@@H]1C)[C@H]1O[C@]2(C=C[C@@H](NC(=S)SC)[C@]3(CC[C@@](C)([C@H]4CC[C@](O)(CC)[C@H](C)O4)O3)O2)[C@H](C)C[C@@H]1C` [FLC-00475-1•Na] stands “several times more potent compared to that of the parent compound”; under `CC[C@@H](C(=O)[C@@H](C)[C@@H](O)[C@H](C)[C@@H]1O[C@@H]([C@@H](CC)C(=O)O)CC[C@@H]1C)[C@H]1O[C@]2(C=C[C@@H](NC(=O)c3ccc(OC(F)(F)F)cc3)[C@]3(CC[C@@](C)([C@H]4CC[C@](O)(CC)[C@H](C)O4)O3)O2)[C@H](C)C[C@@H]1C` [FLC-00486-1•Na], “several times more potent compared to that of the parent compound”.

Values taken from patent publication US20240294541A1, “COMPOUNDS CONSTITUTING C20-MODIFIED SALINOMYCIN DERIVATIVES, A METHOD FOR OBTAINING THE SAME, A COMPOSITION CONTAINING THE SAME AND A USE OF SAID COMPOUNDS” (FILECLO SPOLKA Z OGRANICZONA ODPOWIEDZIALNOSCIA, priority 2021, published 2024).
